Assay results from patent US20250145585A1, “HETEROCYCLIC INHIBITORS OF IGF-1R FOR TREATMENT OF DISEASE” (HORIZON THERAPEUTICS IRELAND DAC, priority 2023, published 2025).

biological target: T1, IGF-1R (Homo sapiens, UniProt P08069); assay: Example B-1: IGF-1R Assay (PC3 cells stimulated with IGF1, AlphaLISA on cell lysates); assay type: cell-based; details: compound two hours, IGF1 200 ng/mL for 30 min, read-out: IC50, Biological Activity against IGF-1R (Table B1)
T1 construct: expressed in transfected cells
T1 sequence (P08069 31-1367): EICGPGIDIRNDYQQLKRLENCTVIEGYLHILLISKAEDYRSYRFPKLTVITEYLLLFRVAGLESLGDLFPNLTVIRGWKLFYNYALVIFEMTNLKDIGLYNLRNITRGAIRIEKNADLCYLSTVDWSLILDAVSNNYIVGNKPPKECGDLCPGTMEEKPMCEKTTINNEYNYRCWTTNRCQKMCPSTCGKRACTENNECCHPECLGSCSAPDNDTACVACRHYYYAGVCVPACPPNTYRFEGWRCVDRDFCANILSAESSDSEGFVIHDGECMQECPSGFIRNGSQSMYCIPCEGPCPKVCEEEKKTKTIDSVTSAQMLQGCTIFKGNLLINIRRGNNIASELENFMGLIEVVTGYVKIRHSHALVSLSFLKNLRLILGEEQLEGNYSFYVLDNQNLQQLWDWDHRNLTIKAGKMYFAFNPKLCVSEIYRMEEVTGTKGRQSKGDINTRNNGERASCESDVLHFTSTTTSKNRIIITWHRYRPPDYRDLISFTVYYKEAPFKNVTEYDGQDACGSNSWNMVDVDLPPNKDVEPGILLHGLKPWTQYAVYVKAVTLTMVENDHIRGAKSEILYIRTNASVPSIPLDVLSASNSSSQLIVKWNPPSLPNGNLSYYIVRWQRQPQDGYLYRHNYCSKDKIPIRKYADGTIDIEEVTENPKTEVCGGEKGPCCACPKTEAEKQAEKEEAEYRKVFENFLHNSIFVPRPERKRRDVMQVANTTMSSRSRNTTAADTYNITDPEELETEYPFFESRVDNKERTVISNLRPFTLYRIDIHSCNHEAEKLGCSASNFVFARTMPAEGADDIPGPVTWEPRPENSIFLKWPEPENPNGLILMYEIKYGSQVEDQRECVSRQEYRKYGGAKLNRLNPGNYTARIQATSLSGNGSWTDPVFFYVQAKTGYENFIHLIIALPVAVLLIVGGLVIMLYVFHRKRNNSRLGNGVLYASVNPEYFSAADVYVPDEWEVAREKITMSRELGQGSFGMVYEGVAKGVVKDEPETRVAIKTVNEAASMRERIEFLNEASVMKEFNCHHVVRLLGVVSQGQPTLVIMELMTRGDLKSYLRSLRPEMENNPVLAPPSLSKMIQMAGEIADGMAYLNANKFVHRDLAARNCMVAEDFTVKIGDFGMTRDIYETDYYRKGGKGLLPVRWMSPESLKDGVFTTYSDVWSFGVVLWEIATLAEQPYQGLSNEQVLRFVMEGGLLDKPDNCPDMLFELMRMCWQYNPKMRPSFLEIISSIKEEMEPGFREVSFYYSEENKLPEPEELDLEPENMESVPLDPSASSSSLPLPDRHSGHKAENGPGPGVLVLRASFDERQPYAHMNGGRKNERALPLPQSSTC
Method in brief: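 PC3 cells serum-starved 2 h, treated 2 h with 3-fold serially diluted compound, then stimulated 30 min with IGF1 (200 ng/mL final). Lysates analysed by AlphaLISA; % inhibition calculated relative to vehicle and EC80 controls, IC50 derived.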

Compound	IC50
CC(C)Nc1cc(CN2C(=O)N(c3ccc([C@H]4C[C@@H]4F)cc3)C(=O)C2(C)C)ccn1 [Compound 96, 3-(4-((1R,2S)-2-fluorocyclopropyl)phenyl)-1-((2-(isopropylamino)pyridin-4-yl)methyl)-5,5-dimethylimidazolidine-2,4-dione]	500 to 2000 nM
CC1(C)C(=O)N(c2ccc(SC(F)(F)F)cc2)C(=O)N1CCc1cn[nH]c1 [Compound 400, 1-(2-(1H-pyrazol-4-yl)ethyl)-5,5-dimethyl-3-(4-((trifluoromethyl)thio)phenyl) imidazolidine-2,4-dione]	2000 to 10000 nM
CC1(C)C(=O)N(c2ccc(C#N)cc2)C(=O)N1Cc1ccnc(N)c1 [Compound 80, 4-(3-((2-aminopyridin-4-yl)methyl)-4,4-dimethyl-2,5-dioxoimidazolidin-1-yl)benzonitrile]	500 to 2000 nM
CC(C)(C)c1ccc(N2C(=O)N(Cc3ccnc(NC4CC(F)(F)C4)c3)C(C)(C)C2=O)cc1 [Compound 270, 3-(4-(tert-butyl)phenyl)-1-((2-((3,3-difluorocyclobutyl)amino)pyridin-4-yl)methyl)-5,5-dimethylimidazolidine-2,4-dione]	≤ 500 nM
CC1(C)C(=O)N(c2ccc(-c3nccs3)cc2)C(=O)N1Cc1ccnc(N)c1 [Compound 81, 1-((2-aminopyridin-4-yl)methyl)-5,5-dimethyl-3-(4-(thiazol-2-yl)phenyl)imidazolidine-2,4-dione]	2000 to 10000 nM
CC1(C)C(=O)N(c2ccc(C3CCOC3)cc2)C(=O)N1Cc1ccnc(N)c1 (centres unmarked) [Compound 85, 1-((2-aminopyridin-4-yl)methyl)-5,5-dimethyl-3-(4-(tetrahydrofuran-3-yl)phenyl)imidazolidine-2,4-dione]	500 to 2000 nM
Nc1cc(CN2C(=O)N(c3ccc(SC(F)(F)F)cc3)C(=O)C23CCCC3)ccn1 [Compound 291, ((2-aminopyridin-4-yl)methyl)-3-(4-((trifluoromethyl)thio)phenyl)-1,3-diazaspiro[4.4]nonane-2,4-dione]	500 to 2000 nM
CC(C)Nc1cc(CN2C(=O)N(c3ccc(C4(C(F)(F)F)CCC4)cc3)C(=O)C2(C)C)ccn1 [Compound 115, 1-((2-(isopropylamino)pyridin-4-yl)methyl)-5,5-dimethyl-3-(4-(1-(trifluoromethyl)cyclobutyl)phenyl) imidazolidine-2,4-dione]	≤ 500 nM
CC(C)(C)c1ccc(N2C(=O)N(Cc3ccnc(NC4CCOCC4)c3)C(C)(C)C2=O)cc1 [Compound 266, 3-(4-(tert-butyl)phenyl)-5,5-dimethyl-1-((2-((tetrahydro-2H-pyran-4-yl)amino)pyridin-4-yl)methyl)imidazolidine-2,4-dione]	≤ 500 nM
CC(C)Nc1cc(CN2C(=O)N(c3ccc(C(C)(C)C)cc3)C(=O)C2(C)C)ccn1 [Compound 263, 3-(4-(tert-butyl)phenyl)-1-((2-(isopropylamino)pyridin-4-yl)methyl)-5,5-dimethylimidazolidine-2,4-dione]	≤ 500 nM
CC1(C)C(=O)N(c2ccc(C3(C#N)CC3)cc2)C(=O)N1Cc1ccnc(N)c1 [Compound 82, 1-(4-(3-((2-aminopyridin-4-yl)methyl)-4,4-dimethyl-2,5-dioxoimidazolidin-1-yl)phenyl)cyclopropane-1-carbonitrile]	≤ 500 nM
CC1(C)C(=O)N(c2ccc(C3(C(F)(F)F)CC3)cc2)C(=O)N1Cc1ccnc2[nH]c(-c3ccccc3)cc12 [Compound 11, 5,5-dimethyl-1-((2-phenyl-1H-pyrrolo[2,3-b]pyridin-4-yl)methyl)-3-(4-(1-(trifluoromethyl)cyclopropyl)phenyl) imidazolidine-2,4-dione]	≤ 500 nM
CC(C)(C)c1ccc(N2C(=O)N(Cc3ccnc(-c4ccn[nH]4)c3)C(C)(C)C2=O)cc1 [Compound 347, 1-((2-(1H-pyrazol-5-yl)pyridin-4-yl)methyl)-3-(4-(tert-butyl)phenyl)-5,5-dimethylimidazoline-2,4-dione]	≤ 500 nM
CC1(C)C(=O)N(c2ccc(C3=CCCCC3)cc2)C(=O)N1Cc1ccnc(N)c1 [Compound 86, 1-((2-aminopyridin-4-yl)methyl)-5,5-dimethyl-3-(2′,3′,4′,5′-tetrahydro-[1,1′-biphenyl]-4-yl)imidazolidine-2,4-dione]	500 to 2000 nM
CC(C)Nc1cc(CN2C(=O)N(c3ccc(C4CC4(C)C)cc3)C(=O)C2(C)C)ccn1 (centres unmarked) [Compound 108, 3-(4-(2,2-dimethylcyclopropyl)phenyl)-1-((2-(isopropylamino)pyridin-4-yl)methyl)-5,5-dimethylimidazolidine-2,4-dione]	≤ 500 nM
CC(C)Nc1cc(CN2C(=O)N(c3ccc(C4(C)CCC4)cc3)C(=O)C2(C)C)ccn1 [Compound 101, 1-((2-(isopropylamino)pyridin-4-yl)methyl)-5,5-dimethyl-3-(4-(1-methylcyclobutyl)phenyl)imidazolidine-2,4-dione]	≤ 500 nM
CC(C)Nc1cc(CN2C(=O)N(c3ccc(C4CC(F)(F)C4)cc3)C(=O)C2(C)C)ccn1 [Compound 102, 3-(4-(3,3-difluorocyclobutyl)phenyl)-1-((2-(isopropylamino)pyridin-4-yl)methyl)-5,5-dimethylimidazolidine-2,4-dione]	500 to 2000 nM
CCc1cn(C)c2cc(N3C(=O)N(Cc4ccnc(NC(C)C)c4)C(C)(C)C3=O)ccc12 [Compound 257, 3-(3-ethyl-1-methyl-1H-indol-6-yl)-1-((2-(isopropylamino)pyridin-4-yl)methyl)-5,5-dimethylimidazolidine-2,4-dione]	500 to 2000 nM
COC[C@H](C)Nc1cc(CN2C(=O)N(c3ccc(C4(C(F)(F)F)CC4)cc3)C(=O)C2(C)C)ccn1 [Compound 105, (S)-1-((2-((1-methoxypropan-2-yl)amino)pyridin-4-yl)methyl)-5,5-dimethyl-3-(4-(1-(trifluoromethyl)cyclopropyl)phenyl) imidazolidine-2,4-dione]	≤ 500 nM

Other lines, results leading:

IC50	Compound
≤ 500 nM	CC(C)NC(=O)Nc1cc(CN2C(=O)N(c3ccc(SC(F)(F)F)cc3)C(=O)C2(C)C)ccn1 [Compound 370, 1-(4-((5,5-dimethyl-2,4-dioxo-3-(4-((trifluoromethyl)thio)phenyl)imidazolidin-1-yl)methyl)pyridin-2-yl)-3-isopropylurea]
≤ 500 nM	CCC(C)Nc1cc(CN2C(=O)N(c3ccc(SC(F)(F)F)cc3)C(=O)C2(C)C)ccn1 (centres unmarked) [Compound 381, 1-((2-(sec-butylamino)pyridin-4-yl)methyl)-5,5-dimethyl-3-(4-((trifluoromethyl)thio)phenyl)imidazolidine-2,4-dione]
≤ 500 nM	CC1(C)C(=O)N(c2ccc(SC(F)(F)F)cc2)C(=O)N1Cc1ccnc(NC(=O)Nc2cccnc2)c1 [Compound 397, 1-(4-((5,5-dimethyl-2,4-dioxo-3-(4-((trifluoromethyl)thio)phenyl)imidazolidin-1-yl)methyl)pyridin-2-yl)-3-(pyridin-3-yl)urea]
500 to 2000 nM	CC(C)C#Cc1cc(CN2C(=O)N(c3ccc(SC(F)(F)F)cc3)C(=O)C2(C)C)cnc1N [Compound 385, 1-((6-amino-5-(3-methylbut-1-yn-1-yl)pyridin-3-yl)methyl)-5,5-dimethyl-3-(4-((trifluoromethyl)thio)phenyl) imidazolidine-2,4-dione]
≤ 500 nM	Cc1cccc(NC(=O)Nc2cc(CN3C(=O)N(c4ccc(SC(F)(F)F)cc4)C(=O)C3(C)C)ccn2)c1 [Compound 372, 1-(4-((5,5-dimethyl-2,4-dioxo-3-(4-((trifluoromethyl)thio)phenyl)imidazolidin-1-yl)methyl)pyridin-2-yl)-3-(m-tolyl)urea]
≤ 500 nM	CC1(C)C(=O)N(c2ccc(SC(F)(F)F)cc2)C(=O)N1Cc1ccnc(NC(=O)Nc2ccc(C#N)cc2)c1 [Compound 376, 1-(4-cyanophenyl)-3-(4-((5,5-dimethyl-2,4-dioxo-3-(4-((trifluoromethyl)thio)phenyl)imidazolidin-1-yl)methyl)pyridin-2-yl)urea]
≤ 500 nM	CN(C)CC(=O)Nc1cc(CN2C(=O)N(c3ccc(SC(F)(F)F)cc3)C(=O)C2(C)C)ccn1 [Compound 348, N-(4-((5,5-dimethyl-2,4-dioxo-3-(4-((trifluoromethyl)thio)phenyl)imidazolidin-1-yl)methyl)pyridin-2-yl)-2-(dimethylamino)acetamide]
≤ 500 nM	CC(=O)Nc1cc(CN2C(=O)N(c3ccc(SC(F)(F)F)cc3)C(=O)C2(C)C)ncn1 [Compound 365, N-(6-((5,5-dimethyl-2,4-dioxo-3-(4-((trifluoromethyl)thio)phenyl)imidazolidin-1-yl)methyl)pyrimidin-4-yl)acetamide]
≤ 500 nM	CC1(C)C(=O)N(c2ccc(SC(F)(F)F)cc2)C(=O)N1Cc1ccnc(NC(=O)NC2CCOCC2)c1 [Compound 306, 1-(4-((5,5-dimethyl-2,4-dioxo-3-(4-((trifluoromethyl)thio)phenyl)imidazolidin-1-yl)methyl)pyridin-2-yl)-3-(tetrahydro-2H-pyran-4-yl)urea]
2000 to 10000 nM	CC1(C)C(=O)N(c2ccc(C(F)(F)F)cc2)C(=O)N1Cc1ccnc(N)c1 [Compound 91, 1-((2-aminopyridin-4-yl)methyl)-5,5-dimethyl-3-(4-(trifluoromethyl)phenyl)imidazolidine-2,4-dione]
500 to 2000 nM	CC(C)(C)Nc1cc(CN2C(=O)N(c3ccc(SC(F)(F)F)cc3)C(=O)C2(C)C)ccn1 [Compound 387, 1-((2-(tert-butylamino)pyridin-4-yl)methyl)-5,5-dimethyl-3-(4-((trifluoromethyl)thio)phenyl) imidazolidine-2,4-dione]
≤ 500 nM	Cc1ccccc1NC(=O)Nc1cc(CN2C(=O)N(c3ccc(SC(F)(F)F)cc3)C(=O)C2(C)C)ccn1 [Compound 366, 1-(4-((5,5-dimethyl-2,4-dioxo-3-(4-((trifluoromethyl)thio)phenyl)imidazolidin-1-yl)methyl)pyridin-2-yl)-3-(o-tolyl)urea]
≤ 500 nM	CC1(C)C(=O)N(c2ccc(SC(F)(F)F)cc2)C(=O)N1Cc1ccnc(NC(=O)NC2COC2)c1 [Compound 308, 1-(4-((5,5-dimethyl-2,4-dioxo-3-(4-((trifluoromethyl)thio)phenyl)imidazolidin-1-yl)methyl)pyridin-2-yl)-3-(oxetan-3-yl)urea]
